Source: patent publication US9416139B2, “Spiro ring compound as hepatitis C virus (HCV) inhibitor and uses thereof” (SUNSHINE LAKE PHARMA CO., LTD., priority 2012, dated 2016)

Assays:
[1] = system: HCV 1a replicon; experiment: HCV GT1a replicon assay in Huh-7 cells; assay type: cell-based, Hepatitis C virus; details: Hepatitis C virus; Huh-7 cells transfected with HCV replicon, 72 hours incubation; read-out: EC50 against HCV 1a genotype
Procedure: (§1) HCV Replicon System was utilized as an evaluation model in the present disclosure for verifying the effects of the compounds disclosed herein on HCV. An HCV Replicon assay was first described in Science, 1999, 285 (5424), 110-3. […] To determine the potential anti-HCV effects of the test compounds, luciferase assay and antibiotic Neomycin resistance gene were tested according to the method described in Science. 1999 Jul. 2; 285 (5424), 110-3 and J. Virol. 2003 March; 77 (5), 3007-19.
(§2) In a word, the compounds disclosed herein were tested by using human hepatic carcinoma cell line which is transfected stably HCV GT1a, GT1b or GT2a replicon respectively, and resistant cells Y93H, L31F, P32L or I302V and wild-type cells HCV 1b. HCV Replicon System disclosed herein containing Neomycin resistance gene and Luciferase Reporter Gene, the level of HCV replication in host cells is characterized by the expression level of the NEO gene expression level or Luciferase Reporter Gene, and the effects of the compounds herein inhibit HCV replication can be evaluated. In this article, a real-time quantitative polymerase chain reaction (qPCR) method was used to detect NEO gene expression level, and chemiluminescence method was used to test Luciferase Reporter Gene expression level.
(§3) 1. Test Method for Measuring EC50 of the Compounds Base on Luciferase Assay.
(§4) The Huh-7 cells transfected with HCV replicons system were seeded into 96-well plates (8,000 cells in 125 μL/well) respectively; each test compound was diluted to desired concentration using 5-fold serial dilutions protocol, 10 doses in duplicate, and added to wells with POD™ 810 Plate Assembler. […] In this paper, experiments were repeated twice and set the holes without compounds as negative control.
(§5) 2. Test Method for Measuring EC50 of the Compounds by Detecting Antibiotic G418 Resistance Gene NEO Gene.
(§6) In this paper, experiments were repeated twice and set the holes without compounds as negative control.

[2] = system: HCV 1b replicon; experiment: HCV GT1b replicon assay in Huh-7 cells; assay type: cell-based, Hepatitis C virus; details: Hepatitis C virus; Huh-7 cells transfected with HCV replicon, 72 hours incubation; read-out: EC50 against HCV 1b genotype
Procedure: as §1, §2, §3, §4, §5, §6

Structure (SMILES)	EC50 [1]	EC50 [2]
COC(=O)N[C@H](C(=O)N1CCC[C@H]1c1ncc(-c2ccc(-c3ncc(-c4ccc5nc([C@@H]6CCCN6C(=O)[C@@H](NC(=O)OC)C(C)C)[nH]c5c4)c4c3CC3(CCCC3)C4)c3c2CCC3)[nH]1)C(C)C [Example 30]	0.336 nM	0.052 nM
COC(=O)N[C@H](C(=O)N1CCC[C@H]1c1ncc(-c2ccc(-c3ncc(-c4ccc5nc([C@@H]6CCCN6C(=O)[C@@H](NC(=O)OC)C(C)C)[nH]c5c4)c4c3CC3(CCCC3)C4)c3ccccc23)[nH]1)C(C)C [Example 31]	5.87 nM	0.539 nM
COC(=O)N[C@H](C(=O)N1CCC[C@H]1c1ncc(-c2ccc(-c3sc(-c4ccc5nc([C@@H]6CCCN6C(=O)[C@@H](NC(=O)OC)C(C)C)[nH]c5c4)c4c3CC3(CCCC3)C4)c3cnoc23)[nH]1)C(C)C [Example 32]	10.3 nM	0.446 nM
COC(=O)NC(C(=O)N1CCC[C@H]1c1ncc(-c2ccc(-c3cc(F)c(-c4ccc5nc([C@@H]6CCCN6C(=O)[C@@H](NC(=O)OC)C(C)C)[nH]c(=O)c5c4)c4c3CC3(CCCC3)C4)nc2)[nH]1)C(C)C (some centres unmarked) [Example 33]	0.078 nM	0.022 nM
COC(=O)NC(C(=O)N1CCC[C@@H]1c1ncc(-c2ccc(-c3ccc(-c4ccc5nc([C@@H]6CCCN6C(=O)[C@@H](NC(=O)OC)C(C)C)[nH]c(=O)c5c4)c4c3CC3(CCCC3)C4)cc2)[nH]1)C(C)C (some centres unmarked) [Example 34]	0.641 nM	0.055 nM
COC(=O)NC(C(=O)N1CCCC1c1cc(=O)c2cc(-c3ccc(-c4ccc(-c5cnc(C6CCCN6C(=O)C(NC(=O)OC)C(C)C)[nH]5)cc4)c4c3CC3(CCCC3)C4)ccc2[nH]1)C(C)C (centres unmarked) [Example 35]	10.6 nM	0.103 nM
COC(=O)NC(C(=O)N1CCCC1C1=Nc2cc(-c3ccc(-c4ccc(-c5cnc(C6CCCN6C(=O)C(NC(=O)OC)C(C)C)[nH]5)cc4)c4c3CC3(CCCC3)C4)ccc2C(C)(C)N1)C(C)C (centres unmarked) [Example 36]	0.438 nM	0.062 nM
